From patent US20150196507A1, “CONTROL OF MILK PRODUCTION AND MAMMARY INVOLUTION” (Amelgo, LLC, priority 2009, published 2015)

Tests used:
[1] = tested on: multiparous Holstein cows; test: Intramammary infusion at dry-off in Holstein cows (milk yield, milk composition, plasma lactose); format: in vivo, cow; settings: for milk yield decline: day one following initiation of treatments, 5 mg in 5 ml carrier per quarter, control down 7.5 kg; for drop in amount of milk versus cows not receiving any infusion: after the first of three daily infusions, FIG. 6
Method: In a set of experiments, forty-five multiparous Holstein cows milked three times daily and producing at least 20 kg/day were randomly assigned to once a day milking and one of three intramammary treatments in each quarter for three days. A control group of fifteen cows received 5 ml of a carrier of 9:1 sterile water and oil via infusion. […] The third group of fifteen cows received a treatment of 5 ml the carrier containing 5 mg of the precursor for serotonin synthesis (5-HTP) via infusion.
The milk yield decline was greater for the second group (down 9.5 kg) and the third group (down 10.0 kg) than that of the first group (down 7.5 kg) on day one following the initiation of treatments (P<0.01).
The amount of milk dropped close to 10% for those cows receiving an infusion of 5-HTP versus cows not receiving any infusion.
Milk lactose, protein, and fat percentage were not affected by treatments, but the milk sodium to potassium ratio increased to 2.8 in the second group on day two as compared to 1.44 in the first group and 1.78 in the third group, (P<0.01).

[2] = tested on: cultures of mammary tissues taken from a lactating mouse; test: Trans-epithelial electrical resistance (TEER) of mouse mammary tissue cultures; format: cell-based; parameters: dose or concentration left out as unconfirmed; settings: fluoxetine, measured at 48 hours
[3] = tested on: primary human breast epithelial cells; test: TEER of human mammary cultures; format: cell-based; settings: for TEER change (FIG. 3): combination read at 36 hours
Source text: FIG. 3 is a graphic illustration of a similar experiment performed on mammary gland cultures biopsied from primary human breast epithelial cells.

Row | Compound | milk yield decline ([1]; P<0.01) | drop in amount of milk versus cows not receiving any infusion ([1]; day two) | milk sodium to potassium ratio ([1]; day two, first (control) group 1.44, P<0.01) | TEER change (FIG. 2) [2] | reduction in TEER ([3]; FIG. 3) | plasma lactose increase compared to the other two groups ([1]; day 1 post-infusion, P<0.001) | TEER change (FIG. 3) [3]
1 | N[C@@H](Cc1c[nH]c2ccc(O)cc12)C(=O)O [5-HTP, 5-hydroxytryptophan] | 10.0 kg | ~10% | 1.78 | – | – | – | –
2 | CCN[C@@H](C)Cc1cccc(C(F)(F)F)c1 [dexfenfluramine] | – | – | – | decrease in TEER similar to that of the combination of phenelzine and fluoxetine | 50% | – | –
3 | CNCCC(Oc1ccc(C(F)(F)F)cc1)c1ccccc1 (centres unmarked) [fluoxetine] | 9.5 kg | ~31% | – | – | – | increased two-fold | did not change TEER
4 | NNCCc1ccccc1 [phenelzine] | – | – | – | small but significant increase in TEER | – | – | caused a decrease
